According to US20230372427A1, “THE COMPOSITIONS OF PLANT INGREDIENTS AND HERBS AGAINST CORONAVIRUS” (priority 2022, published 2023):

Tested on: wild-type SARS-CoV-2 pseudotyped lentivirus (WT-GFP-SARS-CoV-2-pseudotyped lentivirus)
Assay: microbe, parasite or virus in culture
Assay type: cell-based
Settings: HEK-293T, 72 h, read-out: inhibitory effect (viral entry), positive control

Structure (SMILES): CCN(CC)CCCC(C)Nc1ccnc2cc(Cl)ccc12 (stereo not shown) [chloroquine, Chloroquine]
- inhibition at 0.5 µg/mL: ~70%
